Measurements taken from patent US12692238B2, “Substituted pyridazinone herbicides” (FMC CORPORATION, priority 2020, dated 2026).

Legend:
Format in all cases: in vivo
[1] = tested on: barnyardgrass (Echinochloa crus-galli); assay: Test A preemergence, barnyardgrass; details: 10 days
Description: (§1) Seeds of plant species selected from barnyardgrass (Echinochloa crus-galli), blackgrass (Alopecurus myosuroides), corn (Zea mays), foxtail, giant (giant foxtail, Setaria faberi), foxtail, green (green foxtail, Setaria viridis), goosegrass (Eleusine indica), kochia (Bassia scoparia), oat, wild (wild oat, Avena fatua), palmer amaranth (pigweed, palmer, Amaranthus palmeri), redroot pigweed (Amaranthus retroflexus), ragweed (common ragweed, Ambrosia artemisiifolia), ryegrass, Italian (Italian ryegrass, Lolium multiflorum), and soybean (Glycine max) were planted into a blend of loam soil and sand and treated preemergence with a directed soil spray using test chemicals formulated in a non-phytotoxic solvent mixture which included a surfactant.
(§2) At the same time, plants selected from these crop and weed species and also wheat (Triticum aestivum), galium (catchweed bedstraw, Galium aparine) and horseweed (Erigeron canadensis) were planted in pots containing the same blend of loam soil and sand and treated with postemergence applications of test chemicals formulated in the same manner. Plants ranged in height from 2 to 10 cm and were in the one- to two-leaf stage for the postemergence treatment. Treated plants and untreated controls were maintained in a greenhouse for 10 days, after which time all treated plants were compared to untreated controls and visually evaluated for injury. Plant response ratings, summarized in Table A, are based on a 0 to 100 scale where 0 is no effect and 100 is complete control. A dash (-) response means no test result.

[2] = tested on: foxtail, green (green foxtail, Setaria viridis); assay: Test A preemergence, foxtail, green; details: 0 to 100 scale, 10 days
Description: as §1, §2

kochia (Bassia scoparia) [3] = assay: Test A preemergence, kochia; details: 0 to 100 scale, 10 days
Description: as §1, §2

[4] = tested on: redroot pigweed (Amaranthus retroflexus); assay: Test A preemergence, redroot pigweed; details: 0 to 100 scale, 10 days
Description: as §1, §2

[5] = tested on: ragweed (common ragweed, Ambrosia artemisiifolia); assay: Test A preemergence, ragweed; details: 0 to 100 scale, 10 days
Description: as §1, §2

[6] = tested on: ryegrass, Italian (Italian ryegrass, Lolium multiflorum); assay: Test A preemergence, ryegrass, Italian; details: 0 to 100 scale, 10 days
Description: as §1, §2

[7] = tested on: barnyardgrass (Echinochloa crus-galli); assay: Test A postemergence, barnyardgrass; details: 10 days
Description: as §1, §2

[8] = tested on: blackgrass (Alopecurus myosuroides); assay: Test A postemergence, blackgrass; details: 10 days
Description: as §1, §2

corn (Zea mays) = assay: Test A postemergence, corn; details: 10 days
Description: as §1, §2

[9] = tested on: foxtail, green (green foxtail, Setaria viridis); assay: Test A postemergence, foxtail, green; details: 10 days
Description: as §1, §2

kochia (Bassia scoparia) [10] = assay: Test A postemergence, kochia; details: 10 days
Description: as §1, §2

[11] = tested on: redroot pigweed (Amaranthus retroflexus); assay: Test A postemergence, redroot pigweed; details: 10 days
Description: as §1, §2

[12] = tested on: ragweed (common ragweed, Ambrosia artemisiifolia); assay: Test A postemergence, ragweed; details: 10 days
Description: as §1, §2

[13] = tested on: ryegrass, Italian (Italian ryegrass, Lolium multiflorum); assay: Test A postemergence, ryegrass, Italian; details: 10 days
Description: as §1, §2

[14] = tested on: wheat (Triticum aestivum); assay: Test A postemergence, wheat; details: 10 days
Description: as §1, §2

[15] = tested on: galium (catchweed bedstraw, Galium aparine); assay: Test A postemergence, galium; details: 10 days
Description: as §1, §2

[16] = tested on: barnyardgrass (Echinochloa crus-galli); assay: Test B flooded paddy test, barnyardgrass; details: 250 g ai/ha, Flood; visually evaluated after 10 to 14 days
Procedure: (§3) Plant species in the flooded paddy test selected from barnyardgrass (Echinochloa crus-galli), ducksalad (Heteranthera limosa), rice (Oryza sativa), and sedge, umbrella (small-flower umbrella sedge, Cyperus difformis) were grown to the 2-leaf stage for testing. At time of treatment, test pots were flooded to 3 cm above the soil surface, treated by application of test compounds directly to the paddy water, and then maintained at that water depth for the duration of the test. Treated plants and controls were maintained in a greenhouse for 10 to 14 days, after which time all species were compared to controls and visually evaluated. Plant response ratings, summarized in Table B, are based on a scale of 0 to 100 where 0 is no effect and 100 is complete control. A dash (-) response means no test result.

[17] = tested on: ducksalad (Heteranthera limosa); assay: Test B flooded paddy test, ducksalad; details: 250 g ai/ha, Flood; visually evaluated after 10 to 14 days
Procedure: as §3

rice (Oryza sativa) = assay: Test B flooded paddy test, rice; details: 250 g ai/ha, Flood; visually evaluated after 10 to 14 days
Procedure: as §3

[18] = tested on: sedge, umbrella (small-flower umbrella sedge, Cyperus difformis); assay: Test B flooded paddy test, sedge, umbrella; details: 250 g ai/ha, Flood; visually evaluated after 10 to 14 days
Procedure: as §3

[19] = tested on: foxtail, giant (giant foxtail, Setaria faberi); assay: Test A preemergence, foxtail, giant; details: 0 to 100 scale, 10 days
Description: as §1, §2

[20] = tested on: foxtail, giant (giant foxtail, Setaria faberi); assay: Test A postemergence, foxtail, giant; details: 10 days
Description: as §1, §2

[21] = 125 g ai/ha, 0 to 100 scale (0 no effect, 100 complete control)
[22] = Postemergence, 31 g ai/ha, 0 to 100 scale
[23] = Postemergence, 125 g ai/ha, 0 to 100 scale
[24] = 31 g ai/ha, postemergence, 0 to 100 scale (0 no effect, 100 complete control)

Row | Structure (SMILES) | Plant response rating, Barnyardgrass ([1]; 31 g ai/ha, 0 to 100 scale) | Plant response rating, Barnyardgrass [1, 21] | Plant response rating, Kochia (kochia (Bassia scoparia) [3]; 31 g ai/ha) | Plant response rating, Kochia (kochia (Bassia scoparia) [3]; 125 g ai/ha) | Plant response rating, Pigweed, Redroot ([4]; 31 g ai/ha) | Plant response rating, Pigweed, Redroot ([4]; 125 g ai/ha) | Plant response rating, Ragweed ([5]; 31 g ai/ha) | Plant response rating, Ragweed ([5]; 125 g ai/ha) | Plant response rating, Ryegrass, Italian ([6]; 31 g ai/ha) | Plant response rating, Ryegrass, Italian ([6]; 125 g ai/ha) | Plant response rating, Barnyardgrass [7, 23] | Plant response rating, Blackgrass [8, 23] | Plant response rating, Corn (corn (Zea mays); [23]) | Plant response rating, Kochia (kochia (Bassia scoparia) [10]; [24]) | Plant response rating, Kochia (kochia (Bassia scoparia) [10]; [23]) | Plant response rating, Pigweed, Redroot [11, 24] | Plant response rating, Pigweed, Redroot [11, 23] | Plant response rating, Ragweed [12, 24] | Plant response rating, Ragweed [12, 23] | Plant response rating, Ryegrass, Italian [13, 24] | also measured
1 | Cc1ccc2ccc(F)cc2c1-c1c(OCOC(=O)C(C)(C)C)c(Cl)nn(C)c1=O [Compound 4] | 10 | 100 | 20 | 100 | 100 | 100 | 100 | 100 | 90 | 100 | 60 | 70 | 0 | 10 | 40 | 70 | 100 | 50 | 100 | 50 | Plant response rating, Foxtail, Green ([2]; 31 g ai/ha): 70; Plant response rating, Foxtail, Green ([2]; 125 g ai/ha): 100; Plant response rating, Barnyardgrass [7, 22]: 20; Plant response rating, Blackgrass [8, 22]: 20; Plant response rating, Corn (corn (Zea mays); [22]): 0; Plant response rating, Foxtail, Green [9, 24]: 40; Plant response rating, Foxtail, Green [9, 23]: 80; Plant response rating, Ryegrass, Italian [13, 23]: 90; Plant response rating, Wheat [14, 24]: 40; Plant response rating, Wheat [14, 23]: 70; Plant response rating, Galium [15, 24]: 70; Plant response rating, Galium [15, 23]: 100; Plant response rating, Barnyardgrass (0 to 100 scale where 0 is no effect and 100 is complete control) [16]: 75; Plant response rating, Ducksalad (0 to 100 scale where 0 is no effect and 100 is complete control) [17]: 95; Plant response rating, Rice (0 to 100 scale where 0 is no effect and 100 is complete control) (rice (Oryza sativa)): 35; Plant response rating, Sedge, Umbrella (0 to 100 scale where 0 is no effect and 100 is complete control) [18]: 95
2 | CC(=O)OCOc1c(C)nn(C)c(=O)c1-c1c2cc(F)ccc2cc2c(C)cc(C)cc12 [Compound 27] | 0 | 30 | 0 | 80 | 100 | 100 | 50 | 100 | 10 | 90 | 30 | 0 | 10 | 10 | 70 | 100 | 100 | 90 | 90 | 100 | Plant response rating, Foxtail, Giant ([19]; 31 g ai/ha): 0; Plant response rating, Foxtail, Giant ([19]; 125 g ai/ha): 70; Plant response rating, Barnyardgrass [7, 24]: 20; Plant response rating, Blackgrass [8, 24]: 0; Plant response rating, Corn (corn (Zea mays); [24]): 0; Plant response rating, Foxtail, Giant [20, 24]: 0; Plant response rating, Foxtail, Giant [20, 23]: 30; Plant response rating, Ryegrass, Italian [13, 23]: 100; Plant response rating, Wheat [14, 24]: 0; Plant response rating, Wheat [14, 23]: 0; Plant response rating, Galium [15, 24]: 70; Plant response rating, Galium [15, 23]: 100; Plant response rating, Barnyardgrass (0 to 100 scale where 0 is no effect and 100 is complete control) [16]: 0; Plant response rating, Ducksalad (0 to 100 scale where 0 is no effect and 100 is complete control) [17]: 65; Plant response rating, Rice (0 to 100 scale where 0 is no effect and 100 is complete control) (rice (Oryza sativa)): 15; Plant response rating, Sedge, Umbrella (0 to 100 scale where 0 is no effect and 100 is complete control) [18]: 65
3 | CC(=O)OCOc1c(C)nn(C)c(=O)c1-c1c2cc(C)ccc2cc2c(F)cc(C)cc12 [Compound 29] | 0 | 70 | 20 | 100 | 100 | 100 | 90 | 90 | 0 | 60 | 90 | 20 | 0 | 60 | 100 | 100 | 100 | 100 | 100 | 40 | Plant response rating, Foxtail, Giant ([19]; 31 g ai/ha): 0; Plant response rating, Foxtail, Giant ([19]; 125 g ai/ha): 20; Plant response rating, Barnyardgrass [7, 24]: 20; Plant response rating, Blackgrass [8, 24]: 0; Plant response rating, Corn (corn (Zea mays); [24]): 0; Plant response rating, Foxtail, Giant [20, 24]: 20; Plant response rating, Foxtail, Giant [20, 23]: 20; Plant response rating, Ryegrass, Italian [13, 23]: 60; Plant response rating, Wheat [14, 24]: 0; Plant response rating, Wheat [14, 23]: 0; Plant response rating, Galium [15, 24]: 90; Plant response rating, Galium [15, 23]: 100; Plant response rating, Barnyardgrass (0 to 100 scale where 0 is no effect and 100 is complete control) [16]: 55; Plant response rating, Ducksalad (0 to 100 scale where 0 is no effect and 100 is complete control) [17]: 95; Plant response rating, Rice (0 to 100 scale where 0 is no effect and 100 is complete control) (rice (Oryza sativa)): 0; Plant response rating, Sedge, Umbrella (0 to 100 scale where 0 is no effect and 100 is complete control) [18]: 98
